Assay results: patent publication US9290551B2, “Compounds for treating papilloma virus infection” (NanoVir, LLC, priority 2012, dated 2016)
Read-outs that look alike come from different tables or passages of the source.

Tests used:
HPV 16 [1] = assay: HPV 16 episome DNA levels in W12E cells by Q-PCR (Taqman); type: cell-based, Human papilloma virus; details: for effect on HPV viral DNA: comparison of 1037, distamycin A and cidofovir, FIG. 5; for effect on absolute HPV 16 DNA levels: higher doses, in some experiments, FIG. 3
[2] = tested on: Keratinocytes that maintain HPV 16 episomes; assay: MTT cell viability assay; details: MTT assay; FIG. 2B, FIG. 5
Description: (§1) Cells were cultured for 5 days in the presence of polyamide; % Cell Viability=(OD590 drug/OD590 control)×100; n=3.
(§2) Solubilisation of the cells by the addition of a detergent results in the liberation of the crystals which are solubilized. The number of surviving cells is directly proportional to the level of the formazan product created. The color can then be quantified using a simple colorimetric assay. The results can be read on a multiwell scanning spectrophotometer (ELISA reader).
(§3) Cell viability was also assessed routinely with the MTT assay.

HPV31 = HPV31 DNA levels in keratinocytes by real-time PCR; type: cell-based, Human papilloma virus; details: effective (pseudo) IC50
Description: (§4) Human keratinocytes, including those maintaining HPV episomes, are cultured on mitomycin C-treated J2 3T3 cells in media containing three parts Dulbecco's modified Eagle medium (DMEM) and one part F12 media, our modification of published methods (Rheinwald and Green, 1975). Media (E Media) is supplemented with 0.4 μg/mL hydrocortisone, 10 ng/mL cholera toxin, 5 μg/mL insulin, 24 μg/mL adenine, 5 μg/mL transferrin, […] (T3), 10 ng/mL epidermal growth factor (EGF), 1% penicillin-streptomycin, and 5% fetal bovine serum (FBS). All cells are passaged at 70% confluency at a split ratio of 1:5.
(§5) Polyamides for HPV 18 are dissolved at 10 mM in 100% DMSO and diluted with H2O to 1 mM. Polyamides are added to cells in E media at final concentrations of 0.1-10 μM, with final DMSO concentrations of 0.1%. As controls, cells are incubated with normal E media and E media containing the “vehicle” 0.1% DMSO. The HPV DNA levels are then quantified according to previously published procedures (Garner-Hamrick and Fisher, Virology, 301, 334-41, 2002). After incubation, cells are harvested from the plates by either trypsinization or direct lysis with proteinase K digestion buffer (PK buffer: 100 mM NaCl, 10 mM Tris pH 8, 25 mM EDTA, 0.5% SDS, 0.1 mg/mL proteinase K). Trypsinized cells are counted on a hemocytometer and pelleted by centrifugation. Episomal HPV is isolated by the Hirt method (Hirt, 1967) and cell pellets are lysed in 0.6% SDS with 10 mM EDTA. NaCl is next added to a final concentration of 1 M. Following an overnight incubation at 4° C., precipitates containing the chromosomal DNA are spun down and episomal DNA precipitated by the addition of isopropanol. Cells lysed directly in PK buffer are transferred to microfuge tubes and incubated at 50° C. for 2 h. Lysates are then extracted with phenol/chloroform/isoamyl alcohol and spun through a phase lock gel (Eppendorf, Hamburg, Germany). Total DNA is then precipitated with 0.3 M NaOAc and 2.5 vol. ethanol and resuspended in Tris-EDTA (TE) buffer.
HPV31 primers-probe sets for PCR were also designed within the L1 gene:
(§6) All primers and probes are synthesized and HPLC purified by Applied Biosystems (Foster City, Calif.). The HPV probes are labeled with the 5′ reporter dye FAM (6-carboxy-fluorescein) and the 3′ quencher dye TAMRA (6-carboxytetramethyl-rhodamine). A standard curve is generated using a range of 10^8 to 10 copies/reaction of cloned, genomic HPV31 or HPV18 DNA using the following formula: (1.82×10^15)(μg/μL stock DNA)/(length in base pairs)(2)=copies/μL stock DNA. PCR reactions contain final concentrations of 1× Universal Master Mix (PE Applied Biosystems), 200 nM of each primer, and 250 nM probe (PE Applied Biosystems) in a reaction volume of 25 μL. Each Hirt-isolated DNA sample is analyzed in triplicate reactions for episomal HPV. Copies/reaction are determined from the standard curve, and copies/cell determined according to the following formula: (copies/reaction)×(DNA dilution)/(total # cells)=copies/cell.

HPV episomal DNA = assay: Southern blot of HPV episomal DNA; type: cell-based, Human papilloma virus; details: 1 μM and 10 μM; FIG. 4
Description: Several alternative approaches have been used to confirm the effects of our compounds on viral DNA. […] DMSO is the vehicle control; HPV DNA indicates the linearized HPV DNA used to generate the hybridization probe via random primed labeling with DIG-dUTP (Roche); following hybridization, blot was incubated with anti-DIG-AP conjugate and HPV DNA detected using ECF substrate (Amersham) and Storm phosphorimager. […] Other NV compounds have similarly shown the expected decrease in viral DNA by Southern blotting.

[3] = Membrane integrity / modified propidium iodide procedure; type: cell-based; details: rat, membrane integrity assay, read-out: TC50
Description: (§7) Toxicity testing has been carried out for 3 separate polyamides. Two different Rat hepatoma assays were used because they are industry standards for predicting in vivo toxicity. The assays for ATP and membrane integrity assays are described in detail below. Thus, rat hepatoma cells (H4IIE) were seeded into 96-well plates and cultured in medium containing 20% bovine serum. Following an equilibration period of 48 hr, the cells were treated with the test compounds at various concentrations for 24 hr at 37° C. in 5% CO2. Polyamide compounds were tested for toxicity in the two separate assays. A TC50 (concentration needed to kill half of the cells) was not achieved for any polyamides tested over the wide concentration range explored.
A modified propidium iodide (PI) procedure was used to assess cell proliferation/viability. This specific nucleic acid binding dye fluoresces when intercalated within the nucleic acids. The […] enhances PI fluorescence approximately 20 times while the excitation maxima are shifted 30-40 ηm. During method development experiments, it was determined that Triton-X-100 was the best solution to permeabilize the H4IIE cells thereby allowing the PI access to intracellular RNA and DNA. Fluorescence was measured using a Packard Fusion plate reader at 540 ηm excitation and 610 nm emission.

MTT cell viability assay = details: human, keratinocytes that maintain HPV 16 episomes
Description: as §1, §2, §3

HPV18 = HPV18 DNA levels in keratinocytes by real-time PCR; type: cell-based, Human papilloma virus; details: effective (pseudo) IC50
Description: as §4, §5
Viral DNA levels are next quantified according to variations on our previously published methods (Garner-Hamrick and Fisher, Virology, 301, 334-41, 2002). Quantitative PCR is performed using Real-Time PCR technology on an ABI PRISM 7700 Sequence Detector. All primers and probes were designed using Primer Express 1.0 (ABI). For HPV 18, PCR primer-probe sets were designed within the L1 gene:
as §6

[4] = tested on: rat hepatoma cells (H4IIE); type: cell-based
Description: as §7

HPV 16 [5] = assay: HPV 16 episome DNA levels in W12E cells by Q-PCR (Taqman); type: cell-based, Human papilloma virus; details: 10 μM, drug washed out on day 17, sub-cultured without drug for 2 weeks; FIG. 7
[6] = effective (pseudo) IC50, 50% reduction in HPV DNA relative to vehicle (0.1% DMSO), read-out: HPV-16 IC50

Q: With `Cn1cc(NC(=O)c2cc(NC(=O)c3cc(NC=O)cn3C)cn2C)cc1C(=O)NCCC(=N)N` [distamycin A, reference compound] as the compound, how does the “effect on HPV viral DNA” value (HPV 16 [1]) read?
A: only effective against HPV DNA at high concentrations

Q: What about the “effect on cell viability” value [2] of the same compound?
A: also affect cell viability

Q: Which IC50 (HPV 16 [1]; [6]) does the source give for `CN(CCCN)CCCNC(=O)CCNC(=O)c1cc(NC(=O)c2cc(NC(=O)c3cc(NC(=O)CCNC(=O)c4cc(NC(=O)c5cc(NC(=O)c6cc(NC(=O)[C@H](N)CCNC(=O)c7cc(NC(=O)c8cc(NC(=O)c9cc(NC(=O)CCNC(=O)c%10cc(NC(=O)c%11cc(NC(=O)c%12nccn%12C)cn%11C)cn%10C)cn9C)cn8C)cn7C)cn6C)cn5C)cn4C)cn3C)cn2C)cn1C` [Polyamide 1020, ImPPβPPPγNH2PPPβPPPβTa] here?
A: > 1000 nM

Q: What about the IC50 (HPV31) of the same compound?
A: 100 to 1000 nM

Q: And the “episomal DNA content by Southern blot” value (HPV episomal DNA)?
A: expected decrease in episomal DNA content

Q: Which CC50 at 24 h [3] does the source give for `C=C(C)[C@H]1Cc2c(ccc3c2O[C@@H]2COc4cc(OC)c(OC)cc4[C@@H]2C3=O)O1` [rotenone] here?
A: 490 nM

Q: With `Nc1ccn(C[C@@H](CO)OCP(=O)(O)O)c(=O)n1` [Cidofovir, reference compound] as the compound, how does the “loss of total HPV DNA content” value (HPV 16 [1]; 72 hours, only at very high concentrations, FIG. 1) read?
A: approximately 40%

Q: And the “selectivity index (SI: ratio of IC50 to TD50)” value (HPV 16 [1]; cell culture)?
A: 2.5

Q: What about the “effect on HPV viral DNA” value (HPV 16 [1]) of the same compound?
A: only effective against HPV DNA at high concentrations

Q: And the CC50 (MTT cell viability assay)?
A: 750000 nM

Q: What about the “effect on cell viability” value [2] of the same compound?
A: also affect cell viability

Q: Which “HPV episomes by QPCR” value (HPV 16 [1]; concentrations as low as 5 μM) does the source give for `CN(CCCN)CCCNC(=O)CCNC(=O)c1cc(NC(=O)c2cc(NC(=O)c3cc(NC(=O)c4cc(NC(=O)CCNC(=O)c5cc(NC(=O)c6cc(NC(=O)CCCNC(=O)c7cc(NC(=O)c8cc(NC(=O)c9cc(NC(=O)CCNC(=O)c%10cc(NC(=O)c%11cc(NC(=O)c%12nccn%12C)cn%11C)cn%10C)cn9C)cn8C)cn7C)cn6C)cn5C)cn4C)cn3C)cn2C)cn1C` [Polyamide 1028, ImPPβPPPγPPβPPPPβTa] here?
A: undetectable levels

Q: What about the IC50 (HPV 16 [1]; [6]) of the same compound?
A: 100 to 1000 nM

Q: And the “effect on absolute HPV 16 DNA levels” value (HPV 16 [1])?
A: nearly complete elimination of detectable viral DNA

Q: And the IC50 (HPV 16 [1]; read-out: IC50 against HPV 16)?
A: 100 nM

Q: And the IC50 (HPV18)?
A: 100 to 1000 nM

Q: And the IC50 (HPV31)?
A: 100 to 1000 nM

Q: And the CC50 [4]?
A: > 300000 nM

Q: What about the “HPV 16 episomal DNA rebound after withdrawal” value (HPV 16 [5]) of the same compound?
A: recovery does not approach control levels for at least two weeks

Q: For `CC[C@@]1(O)C(=O)OCc2c1cc1n(c2=O)Cc2cc3ccccc3nc2-1` [camptothecin], which CC50 at 24 h ([3]; H4IIE rat hepatoma cells) is on record?
A: 5000 nM

Q: Which “effect on HPV viral DNA” value (HPV 16 [1]) does the source give for `CN(CCCN)CCCNC(=O)CCNC(=O)c1cc(NC(=O)c2cc(NC(=O)c3cc(NC(=O)CCNC(=O)c4cc(NC(=O)c5cc(NC(=O)c6cc(NC(=O)CCNC(=O)c7cc(NC(=O)c8cc(NC(=O)[C@H](N)CCNC(=O)c9cc(NC(=O)c%10cc(NC(=O)CCNC(=O)c%11cc(NC(=O)c%12nc(NC(=O)c%13cc(NC(=O)CCNC(=O)c%14cc(NC(=O)c%15cc(NC(=O)c%16nccn%16C)cn%15C)cn%14C)cn%13C)cn%12C)cn%11C)cn%10C)cn9C)cn8C)cn7C)cn6C)cn5C)cn4C)cn3C)cn2C)cn1C` [Polyamide 1037, ImPPβPIPβPPγNH2PPβPPPβPPPβTa] here?
A: dramatic reduction of viral DNA levels

Q: And the IC50 (HPV 16 [1]; [6])?
A: 100 to 1000 nM

Q: What about the “effect on absolute HPV 16 DNA levels” value (HPV 16 [1]) of the same compound?
A: nearly complete elimination of detectable viral DNA

Q: What about the IC50 (HPV18) of the same compound?
A: ≤ 100 nM

Q: And the IC50 (HPV31)?
A: ≤ 100 nM

Q: What about the “effect on cell viability” value [2] of the same compound?
A: little impact on cell viability

Q: For `CN(CCCN)CCCNC(=O)CCNC(=O)c1cc(NC(=O)c2cc(NC(=O)c3cc(NC(=O)CCNC(=O)c4cc(NC(=O)c5cc(NC(=O)c6cc(NC(=O)CCNC(=O)c7cc(NC(=O)CCNC(=O)CCCNC(=O)c8nc(NC(=O)c9cc(NC(=O)c%10cc(NC(=O)CCNC(=O)c%11cc(NC(=O)c%12nc(NC(=O)c%13cc(NC(=O)CCNC(=O)c%14cc(NC(=O)c%15cc(NC(=O)c%16nccn%16C)cn%15C)cn%14C)cn%13C)cn%12C)cn%11C)cn%10C)cn9C)cn8C)cn7C)cn6C)cn5C)cn4C)cn3C)cn2C)cn1C` [Polyamide 1045, ImPPβPIPβPPIγβPβPPPβPPPβTa], which IC50 (HPV 16 [1]; [6]) is on record?
A: > 1000 nM

Q: What about the IC50 (HPV18) of the same compound?
A: 100 to 1000 nM

Q: What about the IC50 (HPV31) of the same compound?
A: ≥ 1000 nM

Q: With `CN(C)CCCNC(=O)CCNC(=O)c1cc(NC(=O)CCNC(=O)c2cc(NC(=O)c3cc(NC(=O)c4cc(NC(=O)CCNC(=O)c5cc(NC(=O)c6cc(NC(=O)[C@H](N)CCNC(=O)CCNC(=O)c7cc(NC(=O)c8cc(NC(=O)CCNC(=O)c9cc(NC(=O)c%10cc(NC(=O)c%11cc(NC(=O)c%12nccn%12C)cn%11C)cn%10C)cn9C)cn8C)cn7C)cn6C)cn5C)cn4C)cn3C)cn2C)cn1C` [Polyamide 1029, ImPPPβPPβγNH2PPβPPPβPβDp] as the compound, how does the IC50 (HPV 16 [1]; [6]) read?
A: 100 to 1000 nM

Q: What about the IC50 (HPV18) of the same compound?
A: ≥ 1000 nM

Q: And the IC50 (HPV31)?
A: 100 to 1000 nM
